Assay results reported in patent US20220363680A1, “PROCESSES FOR THE SYNTHESIS OF VALBENAZINE” (Neurocrine Biosciences, Inc., priority 2019, published 2022).

Experiments:
[1] = Particle size distribution of manufacturing batches of the compound of Formula I; assay type: physicochemical; conditions: crystalline Form I batches
Text: Manufacturing batches of(2R,3R,11bR)-3-isobutyl-9,10-dimethoxy-2,3,4,6,7,11b-hexahydro-1H-pyrido[2,1-a]isoquinolin-2-yl (S)-2-amino-3-methylbutanoate di(4-methylbenzenesulfonate) (i.e., the compound of Formula I) have been prepared in a similar manner as described herein and have the following particle size distribution characterizations, as shown in Table 3.
Four separate batches of (2R,3R,11bR)-3-Isobutyl-9,10-dimethoxy-2,3,4,6,7,11b-hexahydro-1H-pyrido[2,1-a]isoquinolin-2-yl (S)-2-amino-3-methylbutanoate di(4-methylbenzenesulfonate) were manufactured in a similar manner as described herein (i.e., Example 1) in compliance with applicable cGMPs for GLP use. Certain data are shown below in Table 10 for Example 1, Step E (i.e., Batch 073) and the four batches (i.e., Batches 084, 085, 086, and 087).

[2] = Stability of standard and sample solutions (4 mg/mL) for the HPLC method; assay type: physicochemical; conditions: 4 mg/mL in DI water:acetonitrile 50:50 v/v, ambient laboratory conditions
Experimental: Diluent (DI Water:Acetonitrile, 50:50, v/v).
Note: Standard solutions are stable for 4 days at ambient laboratory conditions.
Working Standard Solution (4 mg/mL of compound of Formula I).
Note: Sample solutions are stable for 4 days at ambient laboratory conditions.
Sample Solution (4 mg/mL of compound of Formula I).

[3] = Table 3, listed as Batch 073, di(4-methylbenzenesulfonate)
[4] = Table 3, listed as Batch 084, di(4-methylbenzenesulfonate)
[5] = Table 3, listed as Batch 085, di(4-methylbenzenesulfonate)
[6] = Table 3, listed as Batch 086, di(4-methylbenzenesulfonate)
[7] = Table 3, listed as Batch 087, di(4-methylbenzenesulfonate)
[8] = Table 10, listed as Batch 073, di(4-methylbenzenesulfonate)
[9] = Table 10, listed as Batch 084, di(4-methylbenzenesulfonate)
[10] = Table 10, listed as Batch 085, di(4-methylbenzenesulfonate)
[11] = Table 10, listed as Batch 086, di(4-methylbenzenesulfonate)
[12] = Table 10, listed as Batch 087, di(4-methylbenzenesulfonate)

Particle size distribution, D10 ([1]; Table 3): 3 µm
Particle size distribution, D50 [1, 3]: 14 µm
Particle size distribution, D90 [1, 3]: 45 µm
Particle size distribution, D50 [1, 4]: 13 µm
Particle size distribution, D90 [1, 4]: 43 µm
Particle size distribution, D50 [1, 5]: 13 µm
Particle size distribution, D90 [1, 5]: 44 µm
Particle size distribution, D50 [1, 6]: 14 µm
Particle size distribution, D90 [1, 6]: 48 µm
Particle size distribution, D50 [1, 7]: 13 µm
Particle size distribution, D90 [1, 7]: 45 µm
Particle size distribution, D10 ([1]; Table 10): 3 μm
Particle size distribution, D50 [1, 8]: 14 μm
Particle size distribution, D90 [1, 8]: 45 μm
Particle size distribution, D50 [1, 9]: 13 μm
Particle size distribution, D90 [1, 9]: 43 μm
Particle size distribution, D50 [1, 10]: 13 μm
Particle size distribution, D90 [1, 10]: 44 μm
Particle size distribution, D50 [1, 11]: 14 μm
Particle size distribution, D90 [1, 11]: 48 μm
Particle size distribution, D50 [1, 12]: 13 μm
Particle size distribution, D90 [1, 12]: 45 μm
Time for which solutions are stable [2]: 4 days
Compound: COc1cc2c(cc1OC)[C@H]1C[C@@H](OC(=O)[C@@H](N)C(C)C)[C@H](CC(C)C)CN1CC2 [Compound of Formula I, (2R,3R,11bR)-3-isobutyl-9,10-dimethoxy-2,3,4,6,7,11b-hexahydro-1H-pyrido[2,1-a]isoquinolin-2-yl (S)-2-amino-3-methylbutanoate di(4-methylbenzenesulfonate)]
